Patent US11530220B2, “Substituted imidazo[1,5-a]pyrazines and [1,2,4]triazolo[4,3-a]pyrazines for the modulation of AhR” (IDEAYA BIOSCIENCES, INC., priority 2018, dated 2022)
Like-named read-outs stand apart in the source and are kept apart here.

Molecular target: T1, hAhR (Homo sapiens, UniProt P35869)
T1 construct: Stably integrated DRE-luciferase cell lines were generated by transducing the both cell lines with Cignal XRE luciferase reporter (Qiagen) lentiviral particles; endogenous in cells; host or cells: HEPG2 (human hepatoma) with stably integrated XRE/DRE-luciferase reporter
T1 sequence (P35869 11-848): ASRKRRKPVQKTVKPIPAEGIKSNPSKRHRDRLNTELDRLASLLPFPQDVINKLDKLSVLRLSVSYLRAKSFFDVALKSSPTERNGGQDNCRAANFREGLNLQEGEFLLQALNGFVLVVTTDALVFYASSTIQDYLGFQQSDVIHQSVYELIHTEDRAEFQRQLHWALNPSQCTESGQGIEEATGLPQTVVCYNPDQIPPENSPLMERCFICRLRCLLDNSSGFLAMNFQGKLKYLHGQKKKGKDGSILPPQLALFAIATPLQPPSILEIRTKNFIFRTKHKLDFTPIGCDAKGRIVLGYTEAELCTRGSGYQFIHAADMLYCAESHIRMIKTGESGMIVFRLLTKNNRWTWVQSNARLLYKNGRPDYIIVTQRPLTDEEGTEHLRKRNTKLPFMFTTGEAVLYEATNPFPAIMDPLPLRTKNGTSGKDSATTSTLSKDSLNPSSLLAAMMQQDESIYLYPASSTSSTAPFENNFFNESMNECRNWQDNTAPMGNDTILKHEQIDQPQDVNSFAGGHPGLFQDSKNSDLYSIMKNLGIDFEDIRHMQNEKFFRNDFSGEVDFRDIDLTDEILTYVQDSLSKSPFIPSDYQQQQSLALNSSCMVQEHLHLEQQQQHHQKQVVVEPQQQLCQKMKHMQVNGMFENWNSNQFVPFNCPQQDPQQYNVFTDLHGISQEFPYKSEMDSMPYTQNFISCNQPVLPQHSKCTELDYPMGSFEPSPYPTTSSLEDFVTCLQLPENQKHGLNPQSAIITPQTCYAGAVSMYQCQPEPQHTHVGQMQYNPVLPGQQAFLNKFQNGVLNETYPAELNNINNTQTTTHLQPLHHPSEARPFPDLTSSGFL
Experiment: DRE-luciferase transcriptional assay, antagonist mode, in HEPG2 DRE-Luc cells stimulated with TCDD
Type: cell-based
Conditions: for Emax: read-out: HEPG2 % Max Inhibition
Method: HEPG2 and HEPA1C1C7 cells were maintained in MEM and αMEM without nucleosides supplemented with 10% heat inactivated FBS respectively. Stably integrated DRE-luciferase cell lines were generated by transducing the both cell lines with Cignal XRE luciferase reporter (Qiagen) lentiviral particles according to the manufacturer protocol. For both cell lines stably integrated reporter cell lines were selected for the presence of 2 μg/mL puromycin. Following selection of stably integrated cell line pools, clonal cell lines were isolated by limiting dilution in 96-well plates. Transcriptional assays were performed by seeding 100 μL of cells at a density of 250,000 or 100,000 cells/mL, for HEPG2 and HEPA1C1C7 DRE-Luc cells respectively, into 96-well cell culture plates in OptiMEM supplemented with 0.5% heat inactivated FBS and allowed to attach overnight. For antagonist assays, the compounds were added in a semi-log dose response using a D300e Digital Dispenser (Tecan) followed normalization with vehicle (DMSO). Immediately following compound addition […] of 2,3,7,8-Tetrachlorodibenzo-p-dioxin (TCDD) was added to the cells to a final concentration of 3 nM or 0.3 nM for the HEPG2 and HEPA1C1C7 DRE-Luc cells respectively. Following 24 h incubation the medium was removed and the cells were lysed in 25 μL of Reporter Lysis Buffer (Promega). Firefly luciferase activity was measured immediately following the addition of 50 μL Luciferase Assay Reagent (Promega). The percent maximal activity for each point was determined using the following equation: 100−(RLUsample−RLUvehicle−TCDD)/(RLUvehicle+TCDD RLUvehicle−TCDD)*100. The relative IC50, defined as the compound concentration required to reduce the TCDD induced response between the top and bottom plateau of each individual dose response curve by half, for each compound was determined using Prism 7 (GraphPad Software).

[1] = HEPG2 DRE-Luc cells, 3 nM TCDD, 24 h incubation
[2] = HEPG2 DRE-Luc cells, 3 nM TCDD, 24 h incubation, relative IC50, read-out: IC50 hAhR (antagonist mode)

Compound	Emax [1]	IC50 [2]	IC50	Emax (HepG2, 24 h)
CC(C)c1nnc2c(NCCc3c[nH]c4ccccc34)nc(-c3cncc(C#N)c3)cn12 [Example 4, 5-{8-[(2-indol-3-ylethyl)amino]-3-isopropyl-4-hydro-1,2,4-triazolo[4,3-a]pyrazin-6-yl}pyridine-3-carbonitrile]	100%	< 0.2 µM	–	–
CC(C)c1cnc2c(NCCc3c[nH]c4cccc(F)c34)nc(-c3cnn(C)c3)cn12 [Example 25, [2-(4-fluoroindol-3-yl)ethyl][3-isopropyl-6-(1-methylpyrazol-4-yl)(4-hydroimidazo[1,2-a]-pyrazin-8-yl)]amine]	100%	< 0.2 µM	–	–
CC(C)c1cnc2c(NCCc3n[nH]c4ccccc34)nc(-c3cncc(F)c3)cn12 [Example 20]	100%	< 0.2 µM	–	–
Cc1nccn1-c1cn2c(C(C)C)cnc2c(NCCc2c[nH]c3cccnc23)n1 [Example 15, [3-isopropyl-6-(2-methylimidazolyl)(4-hydroimidazo[1,2-a]pyrazin-8-yl)](2-pyrrolo[3,2-b]pyridin-3-ylethyl)amine]	73%	1 to 10 µM	–	–
Cc1cncc(-c2cn3c(C(C)C)cnc3c(NCCc3c[nH]c4ccccc34)n2)c1 [Example 7, (2-indol-3-ylethyl)[6-(5-methyl(3-pyridyl))-3-isopropyl-(4-hydroimidazo[1,2-a]pyrazin-8-yl)]amine]	100%	< 0.2 µM	–	–
Cc1cncc(-c2cn3c(C(C)C)ncc3c(NCCc3c[nH]c4ccccc34)n2)c1 [Example 9]	100%	0.2 to 0.5 µM	–	–
Cc1ncc(-c2cn3c(C(C)C)cnc3c(NCCc3c[nH]c4cccc(F)c34)n2)cc1F [Example 26]	98%	0.2 to 0.5 µM	–	–
Cc1nccn1-c1cn2c(C(C)C)cnc2c(NCc2cccc(C(N)=O)c2)n1 [Example 23, 3-({[3-isopropyl-6-(2-methylimidazolyl)-4-hydroimidazo[1,2-a]pyrazin-8-yl]amino}-methyl)benzamide]	12%	1 to 10 µM	–	–
Cc1nccn1-c1cn2c(C(C)C)cnc2c(OCCc2c[nH]c3ccccc23)n1 [Example 32, 8-(2-indol-3-ylethoxy)-3-(methylethyl)-6-(2-methylimidazolyl)-4-hydroimidazo[1,2-a]pyrazine]	100%	0.2 to 0.5 µM	–	–
CC(C)c1nnc2c(NCCc3ccc(O)cc3)nc(-c3cncc(C#N)c3)cn12 [Example 2, 5-(8-{[2-(4-hydroxyphenyl)ethyl]amino}-3-isopropyl-4-hydro-1,2,4-triazolo[4,3-a]pyrazin-6-yl)pyridine-3-carbonitrile]	100%	< 0.2 µM	–	–
CC(C)c1cnc2c(NCCc3ccc(O)cc3)nc(-c3cncc(C#N)c3)cn12 [Example 6, 5-(8-{[2-(4-hydroxyphenyl)ethyl]amino}-3-isopropyl-4-hydroimidazo[1,2-a]pyrazin-6-yl)pyridine-3-carbonitrile]	100%	0.2 to 0.5 µM	–	–
Cc1nccn1-c1cn2c(C(C)C)cnc2c(NCCc2c[nH]c3ccc(F)cc23)n1 [Example 13, [2-(5-fluoroindol-3-yl)ethyl][3-isopropyl-6-(2-methylimidazolyl)(4-hydroimidazo[1,2-a]-pyrazin-8-yl)]amine]	99%	–	–	–
CC(C)c1cnc2c(NCCc3c[nH]c4ccccc34)nc(-c3cncc(C#N)c3)cn12 [Example 8, 5-{8-[(2-indol-3-ylethyl)amino]-3-isopropyl-4-hydroimidazo[1,5-a]pyrazin-6-yl}pyridine-3-carbonitrile]	100%	< 0.2 µM	–	–
CC(C)c1cnc2c(NCCn3ccc4ccccc43)nc(-c3cncc(F)c3)cn12 [Example 29]	–	–	0.5 to 1 µM	100%
CC(C)c1cnc2c(NCCc3c[nH]c4cccc(F)c34)nc(-c3cncc(F)c3)cn12 [Example 24]	–	< 0.2 µM	–	100%
Cc1nccn1-c1cn2c(C(C)C)cnc2c(NCCc2c[nH]c3cccc(F)c23)n1 [Example 14, [2-(4-fluoroindol-3-yl)ethyl][3-isopropyl-6-(2-methylimidazolyl)(4-hydroimidazo[1,2-a]-pyrazin-8-yl)]amine]	100%	< 0.2 µM	–	–
CC(C)c1cnc2c(NCc3cccc4[nH]ccc34)nc(-c3cncc(F)c3)cn12 [Example 28]	33%	0.5 to 1 µM	–	–
Cc1ncc(-c2cn3c(C(C)C)cnc3c(NCCc3c[nH]c4cccc(F)c34)n2)cn1 [Example 27, [2-(4-fluoroindol-3-yl)ethyl][3-isopropyl-6-(2-methylpyrimidin-5-yl)(4-hydroimidazo[1,2-a]pyrazin-8-yl)]amine]	100%	0.2 to 0.5 µM	–	–
Cc1nccn1-c1cn2c(C(C)C)cnc2c(NCCc2cc[nH]c2)n1 [Example 18, [3-isopropyl-6-(2-methylimidazolyl)(4-hydroimidazo[1,2-a]pyrazin-8-yl)](2-pyrrol-3-ylethyl)amine]	77%	1 to 10 µM	–	–
CC(C)c1cnc2c(NCCn3cnc4ccccc43)nc(-c3cncc(F)c3)cn12 [Example 30, (2-benzimidazolylethyl)[6-(5-fluoro(3-pyridyl))-3-isopropyl(4-hydroimidazo[1,2-a]pyrazin-8-yl)]amine]	–	1 to 10 µM	–	94%
Cc1nccn1-c1cn2c(C(C)C)cnc2c(NCCc2c[nH]c3cc(F)cc(F)c23)n1 [Example 22, [2-(4,6-difluoroindol-3-yl)ethyl][3-isopropyl-6-(2-methylimidazolyl)(4-hydroimidazo[1,2-a]pyrazin-8-yl)]amine]	100%	< 0.2 µM	–	–
Cc1nccn1-c1cn2c(C(C)C)cnc2c(N[C@H](C)Cc2c[nH]c3ccccc23)n1 [Example 17a]	100%	0.5 to 1 µM	–	–
Cc1nccn1-c1cn2c(C(C)C)cnc2c(NCCc2c[nH]c3c(F)cccc23)n1 [Example 11, [2-(7-fluoroindol-3-yl)ethyl][3-isopropyl-6-(2-methylimidazolyl)(4-hydroimidazo[1,2-a]pyrazin-8-yl)]amine]	–	< 0.2 µM	–	100%
Cc1cncc(-c2cn3c(C(C)C)cnc3c(NCCc3ccc(O)cc3)n2)c1 [Example 5]	65%	0.5 to 1 µM	–	–
Cc1cncc(-c2cn3c(C(C)C)nnc3c(NCCc3ccc(O)cc3)n2)c1 [Example 1]	100%	0.5 to 1 µM	–	–
Cc1nccn1-c1cn2c(C(C)C)cnc2c(NCc2ccc(C(N)=O)cc2)n1 [Example 31, 4-({[3-isopropyl-6-(2-methylimidazolyl)-4-hydroimidazo[1,2-a]pyrazin-8-yl]amino}methyl)benzamide]	31%	1 to 10 µM	–	–
Cc1cncc(-c2cn3c(C(C)C)nnc3c(NCCc3c[nH]c4ccccc34)n2)c1 [Example 3]	100%	< 0.2 µM	–	–
Cc1nccn1-c1cn2c(C(C)C)cnc2c(NCCc2c[nH]c3cc(F)ccc23)n1 [Example 12, [2-(6-fluoroindol-3-yl)ethyl][3-isopropyl-6-(2-methylimidazolyl)(4-hydroimidazo[1,2-a]pyrazin-8-yl)]amine]	100%	< 0.2 µM	–	–
CC(C)c1cnc2c(NCCn3c(=O)[nH]c4ccccc43)nc(-c3cncc(F)c3)cn12 [Example 19]	100%	< 0.2 µM	–	–
Cc1nccn1-c1cn2c(C(C)C)cnc2c(N[C@@H](C)Cc2c[nH]c3ccccc23)n1 [Example 17b, ((1S)-2-indol-3-yl-isopropyl)[3-isopropyl-6-(2-methylimidazolyl)(4-hydroimidazo[1,2-a]-pyrazin-8-yl)]amine]	81.3%	1 to 10 µM	–	–
